Data on ten compounds can be found in US11998532B1 (priority 2023, dated 2024).

SMILES strings stand for the structures. ≈ marks a conversion by molar mass, not a printed value.

The test system of this assay is multidrug-resistant (MDR) strains of Mycobacterium tuberculosis. As to the kind of experiment: microbe, parasite or virus in culture. The assay is classed as cell-based. The note with it: 192 h, read-out: MIC MDR-TB.
On to `COc1ccc(Cl)cc1-n1ncc(-c2nnc(-c3ccc(Cl)cc3)o2)c1C` [Compound 7a, 2-(1-(5-Chloro-2-methoxyphenyl)-5-methyl-1H-pyrazol-4-yl)-5-(4-chlorophenyl)-1,3,4-oxadiazole], for which the MIC came to 16 µg/mL (≈ 39.9 µM).
As to `COc1ccc(Cl)cc1-n1ncc(-c2nnc(-c3ccc(F)cc3)o2)c1C` [Compound 7b, 2-(1-(5-Chloro-2-methoxyphenyl)-5-methyl-1H-pyrazol-4-yl)-5-(4-fluorophenyl)-1,3,4-oxadiazole], the MIC amounted to 8 µg/mL (≈ 20.8 µM).
As for `COc1ccc(Cl)cc1-n1ncc(-c2nnc(-c3ccc(C)c(Br)c3)o2)c1C` [Compound 7c, 2-(3-Bromo-4-methylphenyl)-5-(1-(5-chloro-2-methoxyphenyl)-5-methyl-1H-pyrazol-4-yl)-1,3,4-oxadiazole], the figure is 64 µg/mL (≈ 139 µM); as for `COc1ccc(Cl)cc1-n1ncc(-c2nnc(-c3ccccc3)o2)c1C` [Compound 7d, 2-(1-(5-Chloro-2-methoxyphenyl)-5-methyl-1H-pyrazol-4-yl)-5-phenyl-1,3,4-oxadiazole], 32 µg/mL (≈ 87.2 µM); as for `COc1ccc(Cl)cc1-n1ncc(-c2nnc(-c3ccc(Br)cc3)o2)c1C` [Compound 7e, 2-(4-Bromophenyl)-5-(1-(5-chloro-2-methoxyphenyl)-5-methyl-1H-pyrazol-4-yl)-1,3,4-oxadiazole], 16 µg/mL (≈ 35.9 µM).
As for `COc1ccc(Cl)cc1-n1ncc(-c2nnc(-c3ccc(Br)c(C)c3)o2)c1C` [Compound 7f, 2-(4-Bromo-3-methylphenyl)-5-(1-(5-chloro-2-methoxyphenyl)-5-methyl-1H-pyrazol-4-yl)-1,3,4-oxadiazole], the MIC came to 64 µg/mL (≈ 139 µM).
Take `COc1ccc(Cl)cc1-n1ncc(-c2nnc(-c3cccc(F)c3)o2)c1C` [Compound 7g, 2-(1-(5-Chloro-2-methoxyphenyl)-5-methyl-1H-pyrazol-4-yl)-5-(3-fluorophenyl)-1,3,4-oxadiazole]: the MIC amounted to 32 µg/mL (≈ 83.2 µM).
The figure for `COc1ccc(Cl)cc1-n1ncc(-c2nnc(-c3cc(Cl)cc(Cl)c3)o2)c1C` [Compound 7h, 2-(1-(5-Chloro-2-methoxyphenyl)-5-methyl-1H-pyrazol-4-yl)-5-(3,5-dichlorophenyl)-1,3,4-oxadiazole] is 16 µg/mL (≈ 36.7 µM).
The figure for `COc1ccc(Cl)cc1-n1ncc(-c2nnc(-c3ccc(Cl)c(Cl)c3)o2)c1C` [Compound 7i, 2-(1-(5-Chloro-2-methoxyphenyl)-5-methyl-1H-pyrazol-4-yl)-5-(3,4-dichlorophenyl)-1,3,4-oxadiazole] is 32 µg/mL (≈ 73.4 µM).
Take `COc1ccc(Cl)cc1-n1ncc(-c2nnc(-c3ccc(C)c([N+](=O)[O-])c3)o2)c1C` [Compound 7j, 2-(1-(5-Chloro-2-methoxyphenyl)-5-methyl-1H-pyrazol-4-yl)-5-(4-methyl-3-nitrophenyl)-1,3,4-oxadiazole]: the MIC came out at 64 µg/mL (≈ 150 µM).
